Measurements taken from publication PMC8286840, “Identifying SARS-CoV-2 antiviral compounds by screening for small molecule inhibitors of Nsp3 papain-like protease” (Biochemical Journal, 2021).
Structures can show the parent of a compound that is named as a salt. Where two headings read alike, the source gives them in different places.

Assays:
[1] = target: T1, SARS-CoV-2 PLpro (nsp3 1564–1878) (Severe acute respiratory syndrome coronavirus 2, UniProt P0DTD1); test: biochemical; set-up: FRET-quenched peptide (Pro3) cleavage by PLpro, 10 min pre-incubation, slope over 20 min, normalised to no-compound control; conditions: read-out: % of control remaining
[2] = target: T1, SARS-CoV-2 PLpro (nsp3 1564–1878); test: biochemical; set-up: FRET-quenched peptide (Pro3) cleavage by PLpro, 10 min pre-incubation, slope over 20 min, normalised to no-compound control; conditions: read-out: % of control remaining; remark: listed apart in the source

CC(C)C[C@H](NC(=O)CNC(=O)[C@H](Cc1ccc(O)cc1)NC(=O)[C@H](CO)NC(=O)[C@H](Cc1c[nH]c2ccccc12)NC(=O)[C@H](Cc1cnc[nH]1)NC(=O)[C@@H]1CCC(=O)N1)C(=O)N[C@@H](CCCNC(=N)N)C(=O)N1CCC[C@H]1C(=O)NCC(N)=O [Gonadorelin (acetate)]
remaining activity at 1.25 µM ([1]; Well no.=6276, low concentration screen): 104%
remaining activity at 3.75 µM ([2]; Well no.=6276, high concentration screen): 106%

CC(C)C[C@H](NC(=O)[C@@H](COC(C)(C)C)NC(=O)[C@H](Cc1ccc(O)cc1)NC(=O)[C@H](CO)NC(=O)[C@H](Cc1c[nH]c2ccccc12)NC(=O)[C@H](Cc1cnc[nH]1)NC(=O)[C@@H]1CCC(=O)N1)C(=O)N[C@@H](CCCNC(=N)N)C(=O)N1CCC[C@H]1C(=O)NNC(N)=O [Goserelin (acetate)]
remaining activity at 1.25 µM ([1]; Well no.=7338, low concentration screen): 97.1%
remaining activity at 3.75 µM ([2]; Well no.=7338, high concentration screen): 95%

CC(C)C[C@H](NC(=O)[C@@H](COC(C)(C)C)NC(=O)[C@H](Cc1ccc(O)cc1)NC(=O)[C@H](CO)NC(=O)[C@H](Cc1c[nH]c2ccccc12)NC(=O)[C@H](Cc1cnc[nH]1)NC(=O)[C@@H]1CCC(=O)N1)C(=O)N[C@@H](CCCNC(=N)N)C(=O)N1CCC[C@H]1C(=O)NNC(N)=O [Goserelin]
remaining activity at 1.25 µM ([1]; Well no.=1624, low concentration screen): 98.9%
remaining activity at 3.75 µM ([2]; Well no.=1624, high concentration screen): 101%

Cc1cc2c(C(C)C)c(O)c(O)c(C=O)c2c(O)c1-c1c(C)cc2c(C(C)C)c(O)c(O)c(C=O)c2c1O [Gossypol]
remaining activity at 1.25 µM ([1]; Well no.=3325, low concentration screen): 98.8%
remaining activity at 1.25 µM ([1]; Well no.=3953, low concentration screen): 102%
remaining activity at 3.75 µM ([2]; Well no.=3325, high concentration screen): 99.3%
remaining activity at 3.75 µM ([2]; Well no.=3953, high concentration screen): 98.4%

CN(C)Cc1c[nH]c2ccccc12 [Gramine]
remaining activity at 1.25 µM ([1]; Well no.=3284, low concentration screen): 97.9%
remaining activity at 3.75 µM ([2]; Well no.=3284, high concentration screen): 99.5%

CN1[C@@H]2CCC[C@H]1C[C@@H](NC(=O)c1nn(C)c3ccccc13)C2 [Granisetron (Hydrochloride)]
remaining activity at 1.25 µM ([1]; Well no.=6223, low concentration screen): 104%
remaining activity at 3.75 µM ([2]; Well no.=6223, high concentration screen): 102%

CN1[C@@H]2CCC[C@H]1C[C@@H](NC(=O)c1nn(C)c3ccccc13)C2 [Granisetron HCl]
remaining activity at 1.25 µM ([1]; Well no.=5189, low concentration screen): 99.3%
remaining activity at 3.75 µM ([2]; Well no.=5189, high concentration screen): 97.5%

CN1[C@@H]2CCC[C@H]1C[C@@H](NC(=O)c1nn(C)c3ccccc13)C2 [Granisetron]
remaining activity at 1.25 µM ([1]; Well no.=1910, low concentration screen): 93.3%
remaining activity at 3.75 µM ([2]; Well no.=1910, high concentration screen): 91.6%

CCc1nc2c(C)nc(C)cc2n1-c1ccc(CCNC(=O)NS(=O)(=O)c2ccc(C)cc2)cc1 [Grapiprant]
remaining activity at 1.25 µM ([1]; Well no.=6998, low concentration screen): 97.1%
remaining activity at 3.75 µM ([2]; Well no.=6998, high concentration screen): 95.9%

Cn1c(-c2ccc3c(c2)OCO3)cc(=O)c2ccccc21 [Graveoline]
remaining activity at 1.25 µM ([1]; Well no.=3147, low concentration screen): 102%
remaining activity at 3.75 µM ([2]; Well no.=3147, high concentration screen): 104%

CC1(C)[C@@H](O)C[C@H]2[C@](C)(O)[C@@H]3CC[C@@H]4[C@@H](O)[C@@]3(C[C@@H](O)[C@@]21O)C[C@@]4(C)O [Grayanotoxin III]
remaining activity at 1.25 µM [1]: 103%
remaining activity at 3.75 µM [2]: 104%

COc1ccccc1O [Guaiacol]
remaining activity at 1.25 µM ([1]; Well no.=1626, low concentration screen): 96.8%
remaining activity at 3.75 µM ([2]; Well no.=1626, high concentration screen): 98.8%

COc1ccccc1OCC(O)CO (stereo not shown) [Guaifenesin]
remaining activity at 1.25 µM ([1]; Well no.=2180, low concentration screen): 97.5%
remaining activity at 3.75 µM ([2]; Well no.=2180, high concentration screen): 100%

N=C(N)N/N=C/c1c(Cl)cccc1Cl [Guanabenz (Acetate)]
remaining activity at 1.25 µM ([1]; Well no.=6652, low concentration screen): 94.5%
remaining activity at 3.75 µM ([2]; Well no.=6652, high concentration screen): 100%

N=C(N)N/N=C/c1c(Cl)cccc1Cl [Guanabenz acetate]
remaining activity at 1.25 µM ([1]; Well no.=604, low concentration screen): 96.6%
remaining activity at 3.75 µM ([2]; Well no.=604, high concentration screen): 96.2%

N=C(N)N/N=C/c1c(Cl)cccc1Cl [Guanabenz]
remaining activity at 1.25 µM ([1]; Well no.=1693, low concentration screen): 105%
remaining activity at 3.75 µM ([2]; Well no.=1693, high concentration screen): 105%

N=C(N)NC(=O)Cc1c(Cl)cccc1Cl [Guanfacine (hydrochloride)]
remaining activity at 1.25 µM ([1]; Well no.=6275, low concentration screen): 101%
remaining activity at 3.75 µM ([2]; Well no.=6275, high concentration screen): 102%

N=C(N)NC(=O)Cc1c(Cl)cccc1Cl [Guanfacine.HCl]
remaining activity at 1.25 µM ([1]; Well no.=1894, low concentration screen): 95.7%
remaining activity at 3.75 µM ([2]; Well no.=1894, high concentration screen): 95.2%

NC(N)=NCCSSCCN=C(N)N [Guanidinoethyl disulfide dihydrobromide]
remaining activity at 1.25 µM ([1]; Well no.=429, low concentration screen): 89.1%
remaining activity at 3.75 µM ([2]; Well no.=429, high concentration screen): 88.8%

NC(N)=N[C@@H](CC(=O)O)C(=O)O [Guanidinosuccinic acid]
remaining activity at 1.25 µM ([1]; Well no.=8176, low concentration screen): 109%
remaining activity at 3.75 µM ([2]; Well no.=8176, high concentration screen): 101%

NC(N)=Nc1ccc2[nH]c3c(c2c1)C[C@@]1(O)[C@H]2Cc4ccc(O)c5c4[C@@]1(CCN2CC1CC1)[C@H]3O5 [Guanidinyl-naltrindole di-trifluoroacetate]
remaining activity at 1.25 µM ([1]; Well no.=763, low concentration screen): 96%
remaining activity at 3.75 µM ([2]; Well no.=763, high concentration screen): 99.9%

Nc1nc2c(ncn2[C@@H]2O[C@H](COP(=O)(O)OP(=O)(O)O)[C@@H](O)[C@H]2O)c(=O)[nH]1 [Guanosine 5'-diphosphate disodium salt]
remaining activity at 1.25 µM ([1]; Well no.=8939, low concentration screen): 98.9%
remaining activity at 3.75 µM ([2]; Well no.=8939, high concentration screen): 96.6%

Nc1nc2c(ncn2[C@@H]2O[C@H](CO)[C@@H](O)[C@H]2O)c(=O)[nH]1 [Guanosine]
remaining activity at 1.25 µM ([1]; Well no.=5248, low concentration screen): 96.5%
remaining activity at 1.25 µM ([1]; Well no.=6833, low concentration screen): 97.7%
remaining activity at 1.25 µM ([1]; Well no.=7708, low concentration screen): 94.4%
remaining activity at 3.75 µM ([2]; Well no.=5248, high concentration screen): 98%
remaining activity at 3.75 µM ([2]; Well no.=6833, high concentration screen): 99.5%
remaining activity at 3.75 µM ([2]; Well no.=7708, high concentration screen): 91.8%

CSc1nc2ccc3nc(NC(=O)C(c4ccccc4)c4ccccc4)sc3c2s1 [Gue1654]
remaining activity at 1.25 µM ([1]; Well no.=5404, low concentration screen): 90.4%
remaining activity at 3.75 µM ([2]; Well no.=5404, high concentration screen): 92.4%

C/C=C1\C(=O)C[C@H]2[C@@H]3CCC4=CC(=O)CC[C@]4(C)[C@H]3CC[C@]12C [Guggulsterone]
remaining activity at 1.25 µM ([1]; Well no.=6918, low concentration screen): 103%
remaining activity at 3.75 µM ([2]; Well no.=6918, high concentration screen): 99.7%

O=C(O)C1=CCCNC1 [Guvacine hydrochloride]
remaining activity at 1.25 µM ([1]; Well no.=460, low concentration screen): 99.2%
remaining activity at 3.75 µM ([2]; Well no.=460, high concentration screen): 99.6%

O=S(=O)(NCCNC/C=C/c1ccc(Br)cc1)c1cccc2cnccc12 [H 89 dihydrochloride - N-[2-[[3-(4-Bromophenyl)-2-propenyl]amino]ethyl]-5-isoquinolinesulfonamide dihydrochloride]
remaining activity at 1.25 µM ([1]; Well no.=2636, low concentration screen): 95.6%
remaining activity at 3.75 µM ([2]; Well no.=2636, high concentration screen): 99.1%

CC1CNCCN1S(=O)(=O)c1cccc2cnccc12 (stereo not shown) [H-7 dihydrochloride]
remaining activity at 1.25 µM ([1]; Well no.=570, low concentration screen): 95.5%
remaining activity at 3.75 µM ([2]; Well no.=570, high concentration screen): 95.4%

CNCCNS(=O)(=O)c1cccc2cnccc12 [H-8 dihydrochloride]
remaining activity at 1.25 µM ([1]; Well no.=893, low concentration screen): 103%
remaining activity at 3.75 µM ([2]; Well no.=893, high concentration screen): 99.3%

CNCCNS(=O)(=O)c1cccc2cnccc12 [H-8, Dihydrochloride]
remaining activity at 1.25 µM ([1]; Well no.=2431, low concentration screen): 106%
remaining activity at 3.75 µM ([2]; Well no.=2431, high concentration screen): 105%

NCCNS(=O)(=O)c1cccc2cnccc12 [H-9 dihydrochloride]
remaining activity at 1.25 µM ([1]; Well no.=340, low concentration screen): 96.1%
remaining activity at 3.75 µM ([2]; Well no.=340, high concentration screen): 100%

O=S(=O)(NCCNC/C=C/c1ccc(Br)cc1)c1cccc2cnccc12 [H-89, Dihydrochloride]
remaining activity at 1.25 µM ([1]; Well no.=2610, low concentration screen): 88.8%
remaining activity at 3.75 µM ([2]; Well no.=2610, high concentration screen): 86.3%
